Data reported in patent US20260206756A1, “COMPOUNDS AND METHODS OF TREATING OR PREVENTING A BACTERIAL INFECTION IN A PLANT” (Ohio State Innovation Foundation, priority 2023, published 2026).
Converted amounts (≈) assume the structure as drawn. “Also recorded” adds a separate entry of the source. Read-outs that look alike come from different tables or passages of the source.

Assays:
[1] = tested on: ‘Sunset’ sweet bell pepper fruit; assay: Phytotoxicity on bell pepper fruits; assay type: in vivo, Capsicum annuum; details: 7 days post treatment; PCs 200 μM; 1.2% thymol; 2% 2,4-D
Procedure: (§1) Phytotoxicity of the ten selected PCs on pepper tissues. The toxicity of the PCs to plant tissues was assessed on pepper seeds, seedlings, and fruits. […]
Toxicity on bell pepper fruits. Pepper fruits were thoroughly washed in soapy water and dried prior to PC treatment. On the surface of each fruit Sul of the PCs (200 μM final concentration) were deposited and air dried under a laminar hood for 30 min. The fruits were incubated in the dark at room temperature and monitored daily for necrotic and chlorotic symptoms. This was performed twice.

[2] = tested on: ‘California Wonder’ pepper seedlings; assay: Phytotoxicity on pepper seedling cotyledons; assay type: in vivo, Capsicum annuum; details: 7 days post application; PCs 200 μM; 1.2% thymol; 2% 2,4-D
Procedure: as §1
Toxicity on seedlings. ‘California Wonder’ pepper seeds were sown in sterile 2 ml glass vials containing 1.5 ml of 1% molten water agar. Four seeds were sown in each vial and incubated for 14 days in the dark at room temperature for the seedlings to sprout. Fifty microliters of PCs (200 μM final concentration) were deposited onto the cotyledons of the seedlings and incubated for another 7 days. After 7 days, necrotic and chlorotic symptoms were assessed for 16 treated seedlings per treatment group. This was performed twice.

[3] = tested on: ‘California Wonder’ pepper seeds; assay: Phytotoxicity on pepper seeds (germination, root and shoot length); assay type: in vivo, Capsicum annuum; details: 14 days post treatment; PCs 200 μM; 1.2% thymol; 2% 2,4-D
Procedure: as §1
Toxicity on seeds. In 2 ml sterile glass vials, 1.5 ml of 1% molten water agar was prepared and supplemented with 200 μM of PCs. Four seeds (‘California Wonder’) were sown into the vials. […] After incubation, seed germination percentage, germling root and shoot length, and necrotic and chlorotic symptoms were recorded from eight treated seeds per treatment group. This was performed twice.

[4] = tested on: Pss SM1042-14R in infested pepper seeds; assay: Antimicrobial efficacy on pepper seeds artificially infested with Pss; assay type: in vivo, Pseudomonas syringae pv. syringae; details: 200 μM, 20 min soak
Procedure: Antimicrobial efficacy of ten selected PCs on pepper seeds artificially infested with Pss SM1042-14R. ‘California Wonder’ pepper seeds were used for artificial infestation with Pss SM1042-14R and PC treatment. Inoculum of Pss SM1042-14R was prepared by growing SM1042-14R in M9 minimal medium overnight as described above. The OD600 was adjusted to 0.1; approximately 1×10^8 CFU/ml. The adjusted inoculum (45 ml of inoculum for 4 g seeds) was transferred to a sterile glass beaker and placed in a Nucerite desiccator (Nalge Sybron, Milwaukee, WI, USA). Seeds were vacuum infiltrated with inoculum at 15 PSI for 5 min. Infested seeds were air-dried in a laminar flow hood at room temperature for 12 h. The dried seeds were transferred to 5 ml sterile tubes and soaked in 1 ml of PCs (200 μM) diluted in sterile water for 20 min. The seeds were air-dried again. Seed aliquots were collected at 1, 3-, 10-, 20-, and 30-days post infestation (dpi, 10 seeds per treatment group per time point). Bacterial populations were estimated by macerating five batches of two seeds per treatment group in 400 μl of 1×PBS in a Whirl Pak bag. […] This was performed twice.

[5] = tested on: Pss SM1042-14R on pepper seedlings; assay type: in vivo, Pseudomonas syringae pv. syringae; details: 200 μM, 7 dpi; for Pseudomonas leaf spot incidence, Curative application / Pseudomonas leaf spot incidence, Preventative application: streptomycin 200 μg/ml, CuSO4 200 μM
[6] = tested on: Pseudomonas syringae pv. syringae (Pss) SM156-18; assay: Dose-response assay (MIC/MBC) in M9 minimal broth; details: 48 h
Procedure: (§2) Minimum inhibitory concentration (MIC) and minimum bactericidal concentration (MBC) of the 15 PCs against 10 Pss strains. A dose-response assay was conducted with the 15 PCs identified during the primary screening against 10 Pss strains including the model strain, SM1042-14R. The dose-response assay was conducted as described above with concentrations of PCs ranging from 3.125 to 500 μM. Pss treated with non-amended M9 minimal media, 2% DMSO, or 50 μg/ml kanamycin were used as controls. The plate was incubated in a Sunrise Tecan kinetic microplate reader for 48 h at 28° C. The percentage of inhibition and cell viability were determined as described above.

[7] = tested on: Pseudomonas syringae pv. syringae (Pss) SM155-18; assay: Dose-response assay (MIC/MBC) in M9 minimal broth; details: 48 h
Procedure: (§3) Primary screening of 4,182 SMs was conducted using a high throughput screening method to identify SMs that inhibited the growth of Pss SM1042-14R strain. A fresh bacterial culture of SM1042-14R was grown in M9 minimal broth in a shaking incubator (180 rpm) for 12 h at 28° C. The bacterial culture was normalized to a final optical density (OD600) of 0.05 (c.a., 8.0×10^7 CFU/ml) using a Genesys 20 spectrophotometer (Thermo Scientific, Rockford, IL, USA). In a sterile flat-bottom 96-well plate, 98 μl of the normalized bacterial suspension was challenged with 2 μl of SMs (final concentration of 200 μM). Controls were bacteria challenged with 2% DMSO (positive control; μc+), 50 μg/ml kanamycin (negative control; μc−), or M9 broth alone (blank control). The plate was incubated in a Sunrise Tecan kinetic microplate reader (Tecan Group Ltd., San Jose, CA, USA) for 48 h at 28° C. OD600 was measured every 30 min.
(§4) The plate was agitated for 15 s at 180 rpm before reading the OD600. Growth inhibition of SM1042-14R by the SMs was calculated using the following formula: % of inhibition=(μc+−X)/(μc+−μc−)×100, where μc+ and μc− is the average final OD600 of the positive and negative controls, respectively, and X is the final OD600 of each of the bacterial culture treated with a designated SM. After the 48 h of incubation with the SMs at 28° C., the viability of the bacterial culture was assessed by plating 5 μl of the culture on YDC (Yeast Dextrose Carbonate) agar medium, incubating the plate at 28° C. and monitoring any bacterial colonies on the plate after 48 h.
(§5) A dose-response assay was conducted with the 15 PCs identified during the primary screening against 10 Pss strains including the model strain, SM1042-14R. The dose-response assay was conducted as described above with concentrations of PCs ranging from 3.125 to 500 μM. Pss treated with non-amended M9 minimal media, 2% DMSO, or 50 μg/ml kanamycin were used as controls. The plate was incubated in a Sunrise Tecan kinetic microplate reader for 48 h at 28° C. The percentage of inhibition and cell viability were determined as described above.

[8] = tested on: Pseudomonas syringae pv. syringae (Pss) SM1030-14; assay: Dose-response assay (MIC/MBC) in M9 minimal broth; details: 48 h
Procedure: as §3, §4, §5

[9] = tested on: Pseudomonas syringae pv. syringae (Pss) SM914-13; assay: Dose-response assay (MIC/MBC) in M9 minimal broth; details: 48 h
Procedure: as §2

[10] = tested on: Pseudomonas syringae pv. syringae (Pss) SM109-18; assay: Dose-response assay (MIC/MBC) in M9 minimal broth; details: 48 h
Procedure: as §3, §4, §5

[11] = tested on: Pseudomonas syringae pv. syringae (Pss) SM1031-14; assay: Dose-response assay (MIC/MBC) in M9 minimal broth; details: 48 h
Procedure: as §3, §4, §5

[12] = tested on: Pseudomonas syringae pv. syringae (Pss) SM51-19; assay: Dose-response assay (MIC/MBC) in M9 minimal broth; details: 48 h
Procedure: as §2

[13] = tested on: Pseudomonas syringae pv. syringae (Pss) SM04-2018-04; assay: Dose-response assay (MIC/MBC) in M9 minimal broth; details: 48 h
Procedure: as §2

[14] = tested on: Pseudomonas syringae pv. syringae (Pss) SM1038-14; assay: Dose-response assay (MIC/MBC) in M9 minimal broth; details: 48 h
Procedure: as §2

[15] = tested on: Pseudomonas syringae pv. syringae (Pss) SM1042-14R; assay: Dose-response assay (MIC/MBC) in M9 minimal broth; details: strain SM1042-14R, 48 h, 28° C.
Procedure: as §3, §4, §5

ten Pss strains = assay: Dose-response assay (MIC/MBC), summary across ten Pss strains; assay type: cell-based, Pseudomonas syringae pv. syringae; details: Pseudomonas syringae; across the different Pss strains; M9 broth; read-out: MICs and MBCs
Pss SM1042-14R = assay: Antimicrobial resistance studies (single step and sequential passage); details: Pseudomonas syringae, SM104214R
Procedure: Antimicrobial resistance studies. […] For the single-step resistance, M9 agar medium amended with 2×MBC of PCs was prepared in a sterile 24-well plate. An overnight culture of SM1042-14R was normalized to OD600 of 1.0 (approximately 10^9 CFU/well). In each of the wells containing different PCs, 50 μl of the adjusted bacterial culture was plated onto the 24 well agar plate. The plate was sealed using parafilm and incubated in the dark at 28° C. for 15 days. After 15 days, any colonies that grew on the 24-well plate were evaluated for MIC and MBC as described above. The experiment was conducted with three replicates per treatment group. SM1042-14R plated on non-amended M9 agar medium, 2% DMSO or 50 μg/ml kanamycin were used as controls.
For sequential passage (sublethal dose) resistance assay, SM1042-14R was grown in M9 minimal broth and adjusted to OD600 of 0.05 (approximately 10^7 CFU/ml). In a 96-well plate, 98 μl of the adjusted bacterial culture was transferred and 0.75×MBC of PC (concentration that allows approximately 70% growth inhibition) was added into the wells. Plates were incubated at 28° C. with 150 rpm shaking for 24 h in the dark. After incubation, cells were centrifuged, the pellet was resuspended in fresh M9 broth amended with 0.75×MBC of PC and grown as described above. […] After 15 passages, MIC, and MBC of the PCs to SM1042-14R were determined as described above. […]

[16] = preventative (1 day prior to inoculation)
[17] = strain SM156-18, M9 broth, 28° C.
[18] = strain SM155-18, M9 broth, 28° C.
[19] = strain SM1030-14, M9 broth, 28° C.
[20] = strain SM914-13, M9 broth, 28° C.
[21] = strain SM109-18, M9 broth, 28° C.
[22] = strain SM1031-14, M9 broth, 28° C.
[23] = strain SM51-19, M9 broth, 28° C.
[24] = strain SM04-2018-04, M9 broth, 28° C.
[25] = strain SM1038-14, M9 broth, 28° C.

SMILES	Pseudomonas leaf spot incidence, Curative application [5] [%]	Pseudomonas leaf spot incidence, Preventative application [5] [%]	MBC ([6]; Pseudomonas syringae) [µM]	MIC ([6]; Pseudomonas syringae) [µM]	MBC ([7]; Pseudomonas syringae) [µM]	MIC ([7]; Pseudomonas syringae) [µM]	MBC ([8]; Pseudomonas syringae) [µM]	MIC ([8]; Pseudomonas syringae) [µM]	MBC ([9]; Pseudomonas syringae) [µM]	MIC ([9]; Pseudomonas syringae) [µM]	MBC ([10]; Pseudomonas syringae) [µM]	MIC ([10]; Pseudomonas syringae) [µM]	MBC ([11]; Pseudomonas syringae) [µM]	MIC ([11]; Pseudomonas syringae) [µM]	MBC ([12]; Pseudomonas syringae) [µM]	MIC ([12]; Pseudomonas syringae) [µM]	MBC ([13]; Pseudomonas syringae) [µM]	MIC ([13]; Pseudomonas syringae) [µM]	MBC ([14]; Pseudomonas syringae) [µM]	MIC ([14]; Pseudomonas syringae) [µM]	other results
O=C(O)COc1ccc(Cl)cc1Cl [2,4-D]																					necrotic or chlorotic symptoms on pepper fruit surface [1]: severe necrotic and chlorotic symptoms; also recorded: caused chlorosis and deformation of the fruit surface; necrotic or chlorotic symptoms on seedling cotyledons [2]: severe necrotic and chlorotic symptoms; also recorded: caused necrotic or chlorotic symptoms; root length of germlings [3]: 1.5±0.7 cm; shoot length of germlings [3]: 0 cm
O=S(=O)([O-])[O-].[Cu+2] [CuSO4, copper sulfate]	57	100																			reduction in Pss load in infested seeds ([4]; 20 days post infestation): 1.9±0.5 log CFU/g; Pss reduction compared to the DMSO group ([5]; curative (1 dpi)): 1.1±0.5 log CFU/g; disease severity (number of lesions per two leaves) ([5]; curative (1 dpi), first trial): 28.1±13.9 lesions; disease severity (number of lesions per two leaves) [5, 16]: 188.4±163.5 lesions; reduction in Pss load compared to the DMSO group [5, 16]: 0.05±0.01 log CFU/g
CCCCCCCCCCCCCCCCn1c[n+](C)c2ccccc21 [PC1]	86	100	12.5	6.25	12.5	6.25	25	6.25	12.5	6.25	12.5	6.25	12.5	6.25	12.5	6.25	12.5	6.25	25	12.5	
CCN1/C(=C/c2ccc3ccccc3[n+]2CC)C=Cc2ccccc21 [PC2]	86	100	25	6.25	25	12.5	50	6.25	25	6.25	12.5	12.5	25	6.25	50	6.25	25	6.25	25	12.5	
CCCCCCCCCCCCCCCC[n+]1ccn(CC#N)c1.[Cl-] [PC3]	86	100																			MBC [15]: 25 µM; MIC [15]: 25 µM; MBC [6, 17]: 50 µM; MIC [6, 17]: 25 µM; MBC [7, 18]: 50 µM; MIC [7, 18]: 25 µM; MBC [8, 19]: 50 µM; MIC [8, 19]: 25 µM; MBC [9, 20]: 25 µM; MIC [9, 20]: 12.5 µM; MBC [10, 21]: 25 µM; MIC [10, 21]: 25 µM; MBC [11, 22]: 25 µM; MIC [11, 22]: 25 µM; MBC [12, 23]: 50 µM; MIC [12, 23]: 25 µM; MBC [13, 24]: 25 µM; MIC [13, 24]: 12.5 µM; MBC [14, 25]: 50 µM; MIC [14, 25]: 25 µM
CC1CCC(C(C)C)C(OC(=O)Cn2c[n+](CC(=O)OC3CC(C)CCC3C(C)C)c3ccccc32)C1 (stereo not shown) [PC4]	100	100	12.5	12.5	25	12.5	12.5	12.5	12.5	12.5	12.5	12.5	12.5	12.5	12.5	12.5	25	12.5	12.5	12.5	
CCOc1ccc2nc3cc(N)ccc3c(N)c2c1 [PC7]		86																			MBC [15]: 100 µM (≈ 25.3 µg/mL); MIC [15]: 50 µM (≈ 12.7 µg/mL); MBC [6, 17]: 100 µM (≈ 25.3 µg/mL); MIC [6, 17]: 50 µM (≈ 12.7 µg/mL); MBC [7, 18]: 100 µM (≈ 25.3 µg/mL); MIC [7, 18]: 50 µM (≈ 12.7 µg/mL); MBC [8, 19]: 100 µM (≈ 25.3 µg/mL); MIC [8, 19]: 50 µM (≈ 12.7 µg/mL); MBC [9, 20]: 50 µM (≈ 12.7 µg/mL); MIC [9, 20]: 25 µM (≈ 6.33 µg/mL); MBC [10, 21]: 100 µM (≈ 25.3 µg/mL); MIC [10, 21]: 50 µM (≈ 12.7 µg/mL); MBC [11, 22]: 100 µM (≈ 25.3 µg/mL); MIC [11, 22]: 50 µM (≈ 12.7 µg/mL); MBC [12, 23]: 200 µM (≈ 50.7 µg/mL); MIC [12, 23]: 50 µM (≈ 12.7 µg/mL); MBC [13, 24]: 100 µM (≈ 25.3 µg/mL); MIC [13, 24]: 50 µM (≈ 12.7 µg/mL); MBC [14, 25]: 100 µM (≈ 25.3 µg/mL); MIC [14, 25]: 50 µM (≈ 12.7 µg/mL)
COc1cc(CN(C)Cc2ccccc2)ccc1OCC(O)CN1CCCCCCC1 (stereo not shown) [PC9]	71	100	200 (≈ 85.3 µg/mL)	200 (≈ 85.3 µg/mL)	200 (≈ 85.3 µg/mL)	100 (≈ 42.7 µg/mL)	200 (≈ 85.3 µg/mL)	100 (≈ 42.7 µg/mL)	200 (≈ 85.3 µg/mL)	200 (≈ 85.3 µg/mL)	200 (≈ 85.3 µg/mL)	100 (≈ 42.7 µg/mL)	200 (≈ 85.3 µg/mL)	200 (≈ 85.3 µg/mL)	200 (≈ 85.3 µg/mL)	100 (≈ 42.7 µg/mL)	200 (≈ 85.3 µg/mL)	100 (≈ 42.7 µg/mL)	200 (≈ 85.3 µg/mL)	100 (≈ 42.7 µg/mL)	MBC (ten Pss strains): 50 to 200 µM (≈ 21.3 to 85.3 µg/mL); Pss reduction compared to the DMSO group ([5]; curative (1 dpi)): 1.9±0.7 log CFU/g
Cn1cc(CNCCCn2ccnc2)c(-c2ccc(Oc3ccccc3)cc2)n1 [PC10]	71	100	200 (≈ 77.5 µg/mL)	200 (≈ 77.5 µg/mL)	200 (≈ 77.5 µg/mL)	200 (≈ 77.5 µg/mL)	200 (≈ 77.5 µg/mL)	200 (≈ 77.5 µg/mL)	200 (≈ 77.5 µg/mL)	200 (≈ 77.5 µg/mL)	200 (≈ 77.5 µg/mL)	200 (≈ 77.5 µg/mL)	200 (≈ 77.5 µg/mL)	200 (≈ 77.5 µg/mL)	200 (≈ 77.5 µg/mL)	200 (≈ 77.5 µg/mL)	200 (≈ 77.5 µg/mL)	200 (≈ 77.5 µg/mL)	200 (≈ 77.5 µg/mL)	200 (≈ 77.5 µg/mL)	MBC (ten Pss strains): 50 to 200 µM (≈ 19.4 to 77.5 µg/mL); reduction in Pss load in infested seeds ([4]; 30 dpi): 1.9±0.2 log CFU/g
[H]/N=C(/N)N[C@H]1[C@H](O)[C@@H](O)[C@H](O[C@@H]2O[C@@H](C)[C@](O)(C=O)[C@H]2O[C@@H]2O[C@@H](CO)[C@H](O)[C@@H](O)[C@@H]2NC)[C@@H](N/C(N)=N\[H])[C@@H]1O [streptomycin]	86	71																			reduction in Pss load in infested seeds ([4]; 30 dpi): 2.0±0 log CFU/g; Pseudomonas leaf spot incidence, Curative application ([5]; listed as Strep): 86%; Pseudomonas leaf spot incidence, Preventative application ([5]; listed as Strep): 71%; Pss reduction compared to the DMSO group ([5]; curative (1 dpi)): 2.2±0.5 log CFU/g; disease severity (number of lesions per two leaves) ([5]; curative (1 dpi), first trial): 24.4±18.2 lesions; disease severity (number of lesions per two leaves) [5, 16]: 88.8±62.5 lesions; reduction in Pss load compared to the DMSO group [5, 16]: 1.7±0.8 log CFU/g; MBC (Pss SM1042-14R; SM1042-14R colonies after the sequential passages resistance assay): > 25 µg/mL; MBC (Pss SM1042-14R; original culture from glycerol stock): 12.5 µg/mL (≈ 21.5 µM)
